# Source: US11414377B2, “Modulator of metabotropic and ionotropic transmembrane receptors and use thereof” (IBD THERAPEUTICS LLC, priority 2018, dated 2022)
# Assays:
# male balb/c mice = experiment: Motility of the gastrointestinal tract in vivo (activated carbon transit); settings: intact 73.8 ± 3.7
# Protocol: The effect of Compound I on the motility of the GIT was studied by a standard procedure (Li Y. Y., Li Y. N., Ni J. B., Chen C. J., Lv S., Chai S. Y., Wu R. H., Yüce B., Storr M. Involvement of cannabinoid-1 and cannabinoid-2 receptors in septic ileus//Neurogastroenterol Motil. 2010. V. 22. P. 350-388). The study was carried out on male balb/c mice, the individual weight of which deviates from the mean value within the sex of no more than ±20%. The animals were given the intragastric administration of a solution of activated carbon (50 mg/ml, in 10 ml/kg) and the rate (in minutes) of the movement of the activated carbon on the intestine of animals was evaluated. Compounds I was administered once intragastrically 1 hour prior to administration of activated carbon. As the comparative preparations, hyoscin butyl bromide (Buscopan) at a dose of 3 mg/kg, trimebutine (Trimedat) at a dose of 33 mg/kg, mebeverine (Duspatalin) at a dose of 30 mg/kg were used. The obtained data were checked using the Grubb's test for the presence of the largest or smallest abnormal observation (ejection) in the sample. Values determined “to be eliminated” in this test were not used for further assay. For all data, descriptive statistics was used: a mean value (M) and standard error of the mean value (m) were counted up. The normality of distribution of the values obtained in the course of the experiment was checked with the aid of the Kolmogorov-Smirnov test. In the case of normal distribution, Student's t-test (t-test) was used to evaluate the inter-group distinctions. In the case of the distribution that is other than the normal one for the comparison of several groups, the Kruskall-Wallis test (with Dann's post hoc test) was used. Distinctions were determined at 5% at a level of confidence.
# female balb/c mice = experiment: Oxazolone-induced inflammatory bowel disease model; type: in vivo; settings: 10 mg/kg, 1, 25 and 49 hours after oxazolone, scored at 72 hours, control 2.00 ± 0.21
# Protocol: The study of the activity of Compound I on the oxazolone-induced inflammatory bowel disease model (ulcerative Colitis and Crohn's disease model) was carried out by means of a standard procedure (Heller F., Fuss I. J., Nieuwenhuis E. E., Blumberg R. S., Strober W. Oxazolone colitis, a Th2 colitis model resembling ulcerative colitis, is mediated by IL-13-producing NK-T cells//Immunity. 2002. P. 629-638).
# The study was carried out on female balb/c mice. A 3.5 F catheter was introduced into the large intestine to a depth of 3-4 cm. Then, 150 μl of 1% oxazolone solution in 50% ethanol was slowly introduced into the colon lumen, the catheter was slowly removed and the mouse was kept in a vertical position (upside down) for 60 seconds to avoid the introduced solution flowing-out. Experimental animals were returned to the cages and the animal was kept in the warm. Compound I was administered intragastrically, three times: 1 hour, 25 hours and 49 hours after the rectal administration of oxazolone. 72 hours later after the rectal administration of oxazolone, the macroscopic assessment of intestinal wall damage is carried out with the help of score scale: 0 points—no lesions, 1 point—hyperemia, no ulcers, 2 points—hyperemia and thickening of the intestinal wall, no ulcers, 3 points—one ulcer without thickening of the intestine wall, 4 points—2 or more of the site of ulceration or inflammation, 5 points—2 or more severe sites of ulcerations and inflammation, or one site of ulceration/inflammation affecting >1 cm in length of the intestine, 6-10 points—the lesion affects >2 cm in length of the intestine, the score increases by 1 point per each 1 cm that is damaged.
# For all data, descriptive statistics is applied: the arithmetic mean (M) and the standard error of the mean (m) are counted up. The normality of distribution of the values obtained in the course of the experiment was checked with the aid of the Shapiro-Wilk test. […] Distinctions were determined at 5% at a level of confidence.
smiles,measurement,setting,value
"CCC(COC(=O)c1cc(OC)c(OC)c(OC)c1)(c1ccccc1)N(C)C (stereo not shown) [Trimebutine, trimebutine, reference compound]",The time of ejection of activated carbon,male balb/c mice; 33 mg/kg once intragastrically 1 hour prior to activated carbon,110.8 ± 6.52 min
"CCCC[N+]1(C)[C@@H]2C[C@@H](OC(=O)[C@H](CO)c3ccccc3)C[C@H]1[C@@H]1O[C@@H]12 (stereo partly shown) [Hyoscine butyl bromide, hyoscin butyl bromide, reference compound]",The time of ejection of activated carbon,male balb/c mice; 3 mg/kg once intragastrically 1 hour prior to activated carbon,87.6 ± 4.75 min
"C[C@]12C=CC(=O)C=C1CC[C@@H]1[C@@H]2[C@@H](O)C[C@@]2(C)[C@H]1CC[C@]2(O)C(=O)CO [Prednisolone, reference compound]",The degree of colon wall damage,female balb/c mice,1.40 ± 0.37 points
"CCN(CCCCOC(=O)c1ccc(OC)c(OC)c1)C(C)Cc1ccc(OC)cc1 (stereo not shown) [Mebeverine, mebeverine, reference compound]",The time of ejection of activated carbon,male balb/c mice; 30 mg/kg once intragastrically 1 hour prior to activated carbon,114.5 ± 12.22 min
